Measured values taken from patent publication US9844521B2, “Pharmaceutical composition comprising ginger extract or shogaol” (UNIVERSITY-INDUSTRY COOPERATION GROUP OF KYUNG HEE …, priority 2008, dated 2017).

How the values were obtained:
[1] = tested on: C57BL/6 mouse having MPTP-induced Parkinson's disease; assay: Dopamine cell protective activity in striatum and substantia nigra (TH immunohistochemistry), MPTP model; format: in vivo; details: 10 mg/kg oral once per day for 5 days, MPTP 30 mg/kg i.p., p<0.05 vs MPTP group
Experimental: Mice were divided into three groups, each of which consisted of 6 mice. A first group (control) and a second group (MPTP group) were orally administered once per day with 10% dimethyl sulfoxide in an amount of 5 ml per mouse weight kg for 5 days, and a third group (shogaol-administered group) was orally administered once per day with 10 mg/kg of shogaol dissolved in 10% dimethyl sulfoxide for 5 days. 2 hours after the oral administration, the first group (control) was intraperitoneally administered with saline in an amount of 5 ml per mouse weight kg for 5 days, and the second and third groups were intraperitoneally administered with 30 mg/kg of MPTP dissolved in saline for 5 days.
The mice of the respective groups were sacrificed after the pole test was completely performed, and brain tissues (striatum and substantia nigra) were isolated. […]
The mice of the respective groups were sacrificed after the pole test was completely performed, and brain tissues (striatum and substantia nigra) were isolated. Protection activity was evaluated using the isolated brain tissues in the same manner as in (1-2) above, and the results are shown in FIGS. 14 and 15. […]

C6 cells = assay: Nerve growth factor secretion induction in C6 cells (NGF measurement kit); format: cell-based, mouse; details: conditioned media of C6 cells, mean±standard deviation
Experimental: This test was performed using a glioma C6 cell line of […] which is known as a cell line that secretes a nerve growth factor (NGF), and a pheochromocytoma PC12 cell line of […] which is known as a cell line that grows neurite with respect to an NGF in a similar way as a neuron. C6 cells and PC12 cells were obtained from Korean Cell Line Bank (KCLB Nos. 10107 and 21721, respectively). C6 cells were cultured using DMEM media (Gibco BRL, USA) supplemented with 3.4 g/L of sodium bicarbonate (NaHCO3), 10% fetal bovine serum, and 1% penicillin-streptomycin antibiotics (10000 U/ml), and PC12 cells were cultured using RPMI1640 medium (Gibco BRL, USA) supplemented with 2.0 g/L of sodium bicarbonate, 10% horse serum, 5% fetal bovine serum, and 1% penicillin-streptomycin antibiotics (10000 U/ml). The fetal bovine serum and the horse serum were inactivated at a temperature of 55[…] for 30 minutes before use, and all of the cells were cultured in a cell culture vessel with a humidity of 70% at a temperature of 37[…] to which 5% carbon dioxide was supplied. Regarding the PC12 cells, the cells were cultured in a culture vessel that was surface-coated with poly-D-lysine (Sigma) diluted with 50 μg/ml of a PBS buffer solution (pH 7.2) for 1 hour and then washed three times with a PBS buffer solution. Shogaol used was obtained from WAKO Company (Japan).
C6 cells attached to a 100 mm culture vessel were separated from the culture vessel by using 0.25% Trypsin-EDTA (Gibco BRL, USA), and then 10 ml of fresh medium was added to the cells to prepare a cell suspension. Then, the number of viable cells was counted and calculated by using a cell number counter. The cells were divided based on the counted cell number such that 2×10^6 cells were contained in a 100 mm culture dish. After 24 hours of cultivation, the used media was removed and replaced with 10 ml of a DMEM medium containing 2% fetal bovine serum, to which 100 ug/ml of each of the ethanol extract, the n-hexane fraction, the ethyl acetate fraction, the n-butanol fraction, and the water fraction prepared according to Example 1 was added. After 24 hours of cultivation, the respective media were obtained. The obtained media were centrifuged at a rate of 1500 rpm for 10 minutes and then a supernatant was collected, and these media (conditioned media) were used to treat PC12 cells.
The C6 cells were divided and treated with 0.1, 1, 5, 10, and 20 μM of shogaol in the same manner as in Experimental Example 1-1 to prepare conditioned media.
A nerve growth factor secreted from C6 cells by shogaol was quantified by treating a nerve growth factor measurement kit (DY556, R&D system, USA) with the conditioned media. In order to identify an effect of shogaol on nerve growth factor secretion induction, a nerve growth factor in the conditioned media prepared by culturing C6 cells after the cells were treated with shogaol was quantified and the results are shown in FIG. 2.

[2] = tested on: C57BL/6 mouse having MPTP-induced Parkinson's disease; assay: Pole test in MPTP-induced Parkinson's disease model; format: in vivo; details: 10 mg/kg oral once per day for 5 days, MPTP 30 mg/kg i.p.
Experimental: 7-week old C57BL/6 based male mice (19-22 g) were obtained and nurtured in an animal laboratory at Kyunghee University Graduate School of East-West Medicine
Science for one week or more for adaptation. Water and feed were freely supplied, and the temperature (22±2[…]), humidity (53±3%), and a cycle of brightness and darkness (12 hours) were automatically controlled. Shogaol used was obtained from WAKO Company (Japan).
Mice were divided into three groups, each of which consisted of 6 mice. A first group (control) and a second group (MPTP group) were orally administered once per day with 10% dimethyl sulfoxide in an amount of 5 ml per mouse weight kg for 5 days, and a third group (shogaol-administered group) was orally administered once per day with 10 mg/kg of shogaol dissolved in 10% dimethyl sulfoxide for 5 days. […]
On a day after the last day of the 5-day administration period, a pole test was performed using a pole having a height of 50 cm and a diameter of 1 cm. A C57bl/6 mouse was placed on the pole with its head upward, and a time during which the mouse turns a summit of the pole at an angle of 180° and moves downward until its four feet touch the ground was measured. […]

SD rats = assay: Acute toxicity test; details: 0.1 mg/10 ml/kg to 5000 mg/10 ml/kg, 2 weeks

CCCCC/C=C/C(=O)CCc1ccc(O)c(OC)c1 [shogaol, (E)-1-(4-hydroxy-3-methoxyphenyl)dec-4-en-3-one]
number of TH positive cells in substantia nigra ([1]; of a control): 70.30±4.86 | optical density of striatum (TH immunoreactivity) [1]: 80.11±1.97 % of a control | secretion amount of a nerve growth factor (C6 cells; 0.1 μM): 105.46±7.27 % of a control | secretion amount of a nerve growth factor (C6 cells; 1 μM): 112.72±3.67 % of a control | secretion amount of a nerve growth factor (C6 cells; 5 μM): 112.97±4.97 % of a control | secretion amount of a nerve growth factor (C6 cells; 10 μM): 119.44±5.18 % of a control | secretion amount of a nerve growth factor (C6 cells; 20 μM): 124.81±5.61 % of a control | T-la (% of control), pole test [2]: 99.1 ± 8.11% | body weight (SD rats): weight change with respect to a test material did not occur | general symptom (SD rats): abnormal symptoms with respect to a test material were not found
